System: B2M gene
Assay: B2M reactivation by 5-azadC in cells silenced by ELXR5-ZIM3 or CasX 491 (Example 12)
Conditions: 0 μM to 20 μM 5-azadC; B2M-targeting gRNA

In the case of Nc1ncn([C@H]2C[C@H](O)[C@@H](CO)O2)c(=O)n1 [5-azadC, 5-aza-2′-deoxycytidine, reference compound], the “reactivation of the B2M gene upon 5-azadC treatment” value is reported as “reactivation of the B2M gene”.

Source: patent US12553037B2, “Engineered class 2, type V repressor systems” (Scribe Therapeutics Inc., priority 2021, dated 2026)
